The source of these data is article PMC9124820, “In vitro evaluation of fenfluramine and norfenfluramine as victims of drug interactions” (Pharmacology Research & Perspectives, 2022).

SMILES strings stand for the structures.

Series [1] in a line: Metabolic stability and metabolite identity, rat liver S9 fractions. The series is classed as in vitro ADME. Conditions: pH 7.4; 1 µM FFA, rat liver S9 fractions 2 mg protein/mL. The method, then:
LC‐MS/MS analyses to assess metabolic stability and identify the transporter substrate were performed using an API 4000 QTRAP mass spectrometer (SCIEX, Framingham, MA) with electrospray ionization in positive mode. Chromatography was performed using an Atlantis dC18 analytical column (100 × 2.1 mm, 5 µm; Waters Corporation, Milford, MA). Mobile phases were 0.2% v/v formic acid in water and 0.2% v/v formic acid in acetonitrile. For metabolic stability experiments, FFA and metabolites were eluted at a flow rate of 0.6 mL/min, with a linear gradient of 20%−80% acetonitrile from 0.30−2.0 min. […] The mass transitions monitored were 232.0 > 159.0 for FFA and 348.0 > 330.0 for 1ʹ‐OH‐midazolam‐d4 internal standard. […]
(§1) FFA (1 or 10 µM) was incubated with liver and intestinal S9 fractions (2 mg protein/mL) at 37 ± 1°C in 0.2‐mL incubation mixtures containing potassium phosphate buffer (50 mM, pH 7.4), magnesium chloride (MgCl2) (3 mM), and EDTA (1 mM, pH 7.4), in the presence or absence of a three‐component cofactor mixture (NADPH‐generating system, uridine diphosphate glucuronic acid (UDPGA) [8 mM], and 3’‐phosphoadenosine 5’‐phosphosulfate [0.5 mM]). […] Supernatant fractions were analyzed by LC‐MS/MS.
To characterize substrate loss and metabolic stability, duplicate samples were analyzed by LC‐MS/MS to determine the change in substrate concentration over the incubation period. […]

The nature of series [2]: Metabolic stability and metabolite identity, human liver S9 fractions. The class given is in vitro ADME. How it is done: (§2) LC‐MS/MS analyses to assess metabolic stability and identify the transporter substrate were performed using an API 4000 QTRAP mass spectrometer (SCIEX, Framingham, MA) with electrospray ionization in positive mode. Chromatography was performed using an Atlantis dC18 analytical column (100 × 2.1 mm, 5 µm; Waters Corporation, Milford, MA). Mobile phases were 0.2% v/v formic acid in water and 0.2% v/v formic acid in acetonitrile. For metabolic stability experiments, FFA and metabolites were eluted at a flow rate of 0.6 mL/min, with a linear gradient of 20%−80% acetonitrile from 0.30−2.0 min. For transporter substrate experiments, the gradient was slightly modified to achieve suitable chromatography. The mass transitions monitored were 232.0 > 159.0 for FFA and 348.0 > 330.0 for 1ʹ‐OH‐midazolam‐d4 internal standard.
For metabolic characterization experiments, LC‐MS/MS analyses were performed using an Acquity Ultra Performance Liquid Chromatography system with an in‐line photodiode array detector and ethylene bridged hybrid C18 columns (2.1 × 100 mm, 1.7 µm; Waters Corporation) coupled to a Synapt G2 HDMS QTOF (Waters Corporation). Mobile phases were 0.1% v/v formic acid in water and 0.1% v/v formic acid in methanol. FFA and metabolites were eluted at a flow rate of 0.5 mL/min with a linear gradient of 2.0%−35% methanol from 1.0−10.0 min. The mass spectrometer was operated in positive mode with electrospray ionization. Data were acquired over the range 50−1200 m/z (mass‐to‐charge ratio) using capillary voltage, 3.5 kV; extraction cone voltage, 4.0 V; source temperature, 120°C; and desolvation temperature, 350°C. A continuous lock mass reference compound, fexofenadine, was sampled at 10‐s intervals for centroid data mass correction. Data were processed with MetaboLynx XS, a component of MassLynx (v. 4.1) software (Waters Corporation).
FFA (1 or 10 µM) was incubated with liver and intestinal S9 fractions (2 mg protein/mL) at 37 ± 1°C in 0.2‐mL incubation mixtures containing potassium phosphate buffer (50 mM, pH 7.4), magnesium chloride (MgCl2) (3 mM), and EDTA (1 mM, pH 7.4), in the presence or absence of a three‐component cofactor mixture (NADPH‐generating system, uridine diphosphate glucuronic acid (UDPGA) [8 mM], and 3’‐phosphoadenosine 5’‐phosphosulfate [0.5 mM]). The NADPH‐generating system consisted of NADP (1 mM, pH 7.4), glucose‐6‐phosphate (5 mM, pH 7.4), and glucose‐6‐phosphate dehydrogenase (1 U/mL). Reactions were initiated by adding the cofactor mix and were stopped at 0, 30, 60, or 120 min by adding an equal volume of acetonitrile. Cofactor controls were incubations performed in parallel in the absence of cofactor for 120 min. Additional incubations were performed with midazolam (10 μM) as a positive control to establish the metabolic competence of test systems. Samples were centrifuged at 920 × g for 10 min at 10°C. Supernatant fractions were analyzed by LC‐MS/MS.
(§3) To characterize substrate loss and metabolic stability, duplicate samples were analyzed by LC‐MS/MS to determine the change in substrate concentration over the incubation period. The rate constant of elimination (kel, min^−1) was determined from the time course of substrate loss based on single exponential decay (A(t)=A0(‐kelt)) . Half‐life in vitro was determined by the following equation: t1/2 = 0.693/kel. The in vitro intrinsic clearance (CLint) was calculated from the rate constant of elimination as follows: CLintμL/min/mgprotein=kelmin^‐1×incubationvolume(μL)/mgproteinperincubation.
(§4) Percent loss of substrate was determined by normalizing the mean analyte peak‐area ratio at each time point to the average of four replicates at the 0‐min time point (100%).

Series [3] is described as follows: Metabolic stability and metabolite identity, rat intestinal S9 fractions. The class given is in vitro ADME. The note with it: intestinal S9 fractions, pH 7.4; 1 µM FFA, rat intestine S9 fractions; outside assay detection limits. How it is done:
as §2, with “standard. […]” for “standard.”
as §1, §3, §4

Series [4] in a line: Metabolic stability and metabolite identity, dog intestinal S9 fractions. The series is classed as in vitro ADME. The method, then: as §2, with “standard. […]” for “standard.”
as §1, §3, §4

The conditions of series [5]: 0.1 mg/kg FFA twice daily with stiripentol plus clobazam, with or without valproate, steady state; ref Prescribing information: https://www.fintepla.com/; cited from earlier work.
Where [6] appears, read: pH 7.4, 1 µM FFA, human liver S9 fractions 2 mg protein/mL, outside assay detection limits.
The mark [7] stands for this setting: intestinal S9 fractions, pH 7.4, 1 µM FFA, dog intestine S9 fractions, outside assay detection limits.

Broadly, the half-life is the time in which the quantity being followed falls by half. Broadly, the microsomal CLint is a measure of how fast metabolising enzymes remove a compound, apart from limits set by blood flow.

Turning to `CCNC(C)Cc1cccc(C(F)(F)F)c1` (racemic) [FFA, (RS)‐ethyl (α‐methyl‐3‐trifluoromethylphenethyl)amine], the half-life at 1 µM is 0.59 h in series [1], more than 2 h in series [2] (setting [6]), more than 2 h in series [3] and more than 2 h in series [4] (setting [7]). Moreover, the microsomal CLint at 1 µM in series [1] was 9.8 µL/min/mg; in series [2] (setting [6]) it was less than 2.9 µL/min/mg; in series [3], less than 2.9 µL/min/mg; in series [4] (setting [7]) it was less than 2.9 µL/min/mg. Further, the “percent of the drug remaining” value amounted to 1.9% in series [2] (human liver S9, 1 μM FFA with cofactors, 30 min); 11.1% in series [2] (human liver S9, 1 μM FFA with cofactors, 60 min); 20.9% in series [2] (human liver S9, 1 μM FFA with cofactors, 120 min); 21.6% in series [2] (human liver S9, 1 μM FFA, absence of the cofactors); 22.9% in series [2] (human liver S9, 10 μM FFA, absence of the cofactors). Also, the “percentage of FFA substrate loss at 10 µM relative to 1 µM” value in series [4] (dog intestinal S9 fractions, higher at 10 µM than at 1 µM) is given as “about 2 fold”. For the same compound, the “increase in FFA AUC0‐24” value in series [5] was 166%. Moreover, where the note is “CYP inhibition by stiripentol/clobazam plus renal clearance”, the “clearance accounted for in vivo” value is “approximately 80%”. Further, the “maximum possible amount remaining for metabolism by MAO” value (human, in vivo, 0.1 mg/kg twice daily) was not above 20%.
